From patent publication US20040087030A1, “Method for the regeneration of cotton” (priority 1998, published 2004)

Experiments:
Assay type in all cases: cell-based, cotton (Coker 312)
[1] = tested on: transgenic cotton calli (Coker 312); test: Induction of embryogenesis in transgenic cotton callus on induction media with antioxidant (ascorbic acid)
Method: […] This culture was maintained at 28° C. under conditions of dark or limited lighting. The dark or limited lighting conditions were accomplished using a black bag, a covering of aluminum foil, or by incubating in a dark growth chamber. Alternatively, the transgenic calli may be incubated under green light. The incubation is continued for about eight to ten weeks.

embryogenic cotton calli = test: Embryogenic callus formation on induction media with ethylene inhibitors; conditions: 40 calli tested
Method: The transgenic calli were removed from the hypocotyls and transferred to a culture containing hormone-free media comprising the following components per liter: 4.4 g MS salts with B5 vitamins; 30 g glucose, pH 5.8; an antioxidant, such as ascorbic acid (10-100 mg); an ethylene inhibitor, such as aminoethoxyvinylglycine at approximately 5 μM; GELRITE or PHYTAGEL (2-3 g); and selective agents as described above. This culture was maintained at 28° C. under conditions of dark or limited lighting. The dark or limited lighting conditions were accomplished using a black bag, a covering of aluminum foil, or by incubating in a dark growth chamber. Alternatively, the transgenic calli may be incubated under green light. The incubation is continued for about eight to ten weeks.
In two separate experiments, the ethylene inhibitors AVG (aminoethoxy-vinylglycine), DNP (2,4-dinitrophenol), and salicylic acid were tested to determine their influence on the induction of embryogenic cotton calli.

cotton embryos = test: Embryo germination on germination media with varying carbohydrate concentration
Method: The preparation of Agrobacterium, seed sterilization, seed germination, inoculation, co-culture, and selection were performed as described in Example 1. Embryos were induced as outlined in Examples 2, 3, and 4. After eight weeks, the embryogenic tissue that formed was transferred to an embryo maturation media as described in Examples 5 and 6. Cultures were monitored for the presence of actively growing embryos.
About every four weeks, actively growing tissue and small embryos were removed and placed on fresh maturation media. The embryos were spaced on the culture plates with adequate room for growth. The tissue was returned to the warm room and incubated under the same growth conditions.
Embryos larger than about 5 mm were transferred to a germination media (Stewart and Hsu, Planta 137:113-117, […]) with various carbohydrate concentrations and 0.25 g/L GELRITE. The embryos are incubated at 28° C. in a lighted incubator with a 16/8 day/night cycle.
Various concentrations of glucose and sucrose in the germination media were tested. The germination media comprised sucrose or glucose at concentrations ranging from about 0%-2% (w/v).

[2] = pMON20956 vector, ascorbic acid 100 mg/L
[3] = 0.1% carbohydrate in germination media
[4] = 0.5% carbohydrate in germination media
[5] = 1% carbohydrate in germination media
[6] = 2% carbohydrate in germination media

Compound: O=C1O[C@H]([C@@H](O)CO)C(O)=C1O [Ascorbic Acid, ascorbic acid]
- effect on frequency of embryogenesis ([1]; Coker 312, two independent experiments): increase the frequency of embryogenesis
- % Embryogenic Calli Transfer 1 [1, 2]: 3%
- % Embryogenic Calli Transfer 2 [1, 2]: 31%
- Total Frequency of Embryogenesis [1, 2]: 34%

Compound: O=[N+]([O-])c1ccc(O)c([N+](=O)[O-])c1 [DNP, 2,4-dinitrophenol]
- Embryogenic Calli Formed (embryogenic cotton calli; Expt 1 pMON10517, 1 μM): 17
- Frequency of Formation (embryogenic cotton calli; Expt 1 pMON10517, 1 μM): 43%
- Embryogenic Calli Formed (embryogenic cotton calli; Expt 2 pMON10079, 1 μM): 16
- Frequency of Formation (embryogenic cotton calli; Expt 2 pMON10079, 1 μM): 40%

Compound: O=C(O)c1ccccc1O [salicylic acid]
- Embryogenic Calli Formed (embryogenic cotton calli; Expt 1 pMON10517, 50 μM): 12
- Frequency of Formation (embryogenic cotton calli; Expt 1 pMON10517, 50 μM): 30%
- Embryogenic Calli Formed (embryogenic cotton calli; Expt 2 pMON10079, 50 μM): 17
- Frequency of Formation (embryogenic cotton calli; Expt 2 pMON10079, 50 μM): 43%

Compound: OC[C@H]1O[C@@](CO)(O[C@H]2O[C@H](CO)[C@@H](O)[C@H](O)[C@H]2O)[C@@H](O)[C@@H]1O [sucrose]
- # Plantlets with Expanded Leaves (cotton embryos; [3]): 7
- Transformation Frequency (cotton embryos; [3]): 47%
- # Plantlets with Expanded Leaves (cotton embryos; [4]): 10
- Transformation Frequency (cotton embryos; [4]): 43%
- # Plantlets with Expanded Leaves (cotton embryos; [5]): 6
- Transformation Frequency (cotton embryos; [5]): 27%
- # Plantlets with Expanded Leaves (cotton embryos; [6]): 5
- Transformation Frequency (cotton embryos; [6]): 28%
- effect on frequency of embryo germination and plantlet formation (cotton embryos; concentrations ranging from about 0% to 0.5% (w/v) in germination media): significantly increased the frequency of embryo germination and plantlet formation
